Assay results from PMC5912893 (Journal of medicinal chemistry, 2018).

Experiments:
[1] = tested on: A375, M14, and RPMI7951; test: Cytotoxic activity against three human malignant melanoma cell lines; conditions: read-out: IC50 (approximate, three melanoma cell lines)
[2] = tested on: PC-3 xenograft; conditions: nude mice
[3] = target: purified tubulin (Sus scrofa, UniProt P02550+P02554); test: Cell-free microtubule polymerization assay; format: biochemical, porcine; conditions: tubulin 3.33 mg/mL, absorbance 340 nm, 37 °C, 50 min
Sequence of purified tubulin (P02554 whole entry): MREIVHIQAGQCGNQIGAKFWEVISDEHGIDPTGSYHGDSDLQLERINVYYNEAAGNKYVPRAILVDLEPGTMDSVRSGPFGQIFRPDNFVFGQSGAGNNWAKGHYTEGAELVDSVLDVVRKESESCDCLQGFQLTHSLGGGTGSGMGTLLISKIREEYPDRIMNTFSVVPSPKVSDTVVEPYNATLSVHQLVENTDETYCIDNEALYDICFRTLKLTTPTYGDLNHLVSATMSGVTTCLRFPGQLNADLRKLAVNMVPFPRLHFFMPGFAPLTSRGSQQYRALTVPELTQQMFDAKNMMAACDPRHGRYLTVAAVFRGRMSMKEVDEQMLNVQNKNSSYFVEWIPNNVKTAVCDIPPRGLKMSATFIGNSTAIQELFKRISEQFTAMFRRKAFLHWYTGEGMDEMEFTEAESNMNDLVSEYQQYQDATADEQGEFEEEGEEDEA
Sequence of purified tubulin (P02550 whole entry): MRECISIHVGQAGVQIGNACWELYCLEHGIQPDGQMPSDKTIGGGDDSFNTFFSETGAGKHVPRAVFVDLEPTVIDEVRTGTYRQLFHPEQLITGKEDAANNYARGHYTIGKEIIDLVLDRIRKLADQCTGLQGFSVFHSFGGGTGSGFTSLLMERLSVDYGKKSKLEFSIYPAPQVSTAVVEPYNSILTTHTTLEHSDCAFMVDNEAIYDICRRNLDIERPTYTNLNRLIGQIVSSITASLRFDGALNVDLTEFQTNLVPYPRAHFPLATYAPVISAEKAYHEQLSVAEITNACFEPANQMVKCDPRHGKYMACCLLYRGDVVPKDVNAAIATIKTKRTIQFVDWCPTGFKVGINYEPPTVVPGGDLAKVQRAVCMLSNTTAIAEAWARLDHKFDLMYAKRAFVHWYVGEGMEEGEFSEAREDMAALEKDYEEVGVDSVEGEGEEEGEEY

[4] = tested on: PC-3/TxR xenograft; test: Paclitaxel resistant PC-3/TxR prostate cancer xenograft model in nude mice; format: in vivo; conditions: for effect on tumor growth (in words): vs vehicle
[5] = tested on: A375 xenograft; test: A375 melanoma xenograft model in nude mice; format: in vivo; conditions: for apoptosis in tumors (cleaved caspase 3 IHC): IHC staining
[6] = tested on: WM164 melanoma cells; test: Confocal immunofluorescent microscopy of microtubule networks; format: cell-based, human; conditions: 100 nM, 18 h
[7] = tested on: RPMI7951; test: Wound healing assay, RPMI7951 cells; format: cell-based, human; conditions: 18 h, untreated control 71.8%

COc1ccc(N(C)c2nc(Cl)nc3ncccc23)cc1OC [21a, 2-Chloro-N-(3,4-dimethoxyphenyl)-N-methylpyrido[2,3-d]-pyrimidin-4-amine]
IC50 [1]: 45 nM

COc1ccc2c(c1)OCCN2c1nc(Cl)nc2ncccc12 [compound 19, 4-(2-Chloropyrido[2,3-d]pyrimidin-4-yl)-7-methoxy-3,4-dihydro-2H-benzo[b][1,4]oxazine]
IC50 [1]: 298 nM

CC(=O)O[C@H]1C(=O)[C@@]2(C)[C@H]([C@H](OC(=O)c3ccccc3)[C@]3(O)C[C@H](OC(=O)[C@H](O)[C@@H](NC(=O)c4ccccc4)c4ccccc4)C(C)=C1C3(C)C)[C@]1(OC(C)=O)CO[C@@H]1C[C@@H]2O [paclitaxel, reference compound]
susceptibility of nonresistant tumors to treatment [2]: highly susceptible | effect on tubulin polymerization [3]: greatest polymerization | mouse body weight [4]: began to drop considerably after 2 weeks of treatment | effect on tumor growth (in words) [4]: no difference in tumor growth | microvessel density in tumors (CD31 staining) [5]: less microvessel density | apoptosis in tumors (cleaved caspase 3 IHC) [5]: increase in the number of cells undergoing apoptosis

COc1ccc2c(c1)CCCN2c1nc(Cl)nc2ccoc12 [6a, 2-Chloro-4-(6-methoxy-3,4-dihydroquinolin-1(2H)-yl)furo[3,2-d]pyrimidine]
effect on tubulin polymerization [3]: effectively inhibited tubulin polymerization in a dose-dependent manner | microvessel density in tumors (CD31 staining) [5]: less microvessel density | apoptosis in tumors (cleaved caspase 3 IHC) [5]: increase in the number of cells undergoing apoptosis | IC50 [1]: ~3 nM

CC(=O)O[C@@]12CO[C@@H]1C[C@H](O)[C@@]1(C)C(=O)[C@H](O)C3=C(C)[C@@H](OC(=O)[C@H](O)[C@@H](NC(=O)OC(C)(C)C)c4ccccc4)C[C@@](O)([C@@H](OC(=O)c4ccccc4)[C@H]21)C3(C)C [docetaxel, reference compound]
effect on microtubule networks [6]: dense tubulin accretion, representative of aggressive polymerization

COc1ccc2c(c1)CCCN2c1nc(Cl)nc2ncccc12 [4a, 2-Chloro-4-(6-methoxy-3,4-dihydroquinolin-1(2H)-yl)pyrido-[2,3-d]pyrimidine]
effect on tubulin polymerization [3]: effectively inhibited tubulin polymerization in a dose-dependent manner | effect on microtubule networks [6]: causes fragmentation of the microtubules, decreases polymeric tubulin filaments, and increases cytoplasmic soluble tubulin | effect on tumor growth (in words) [4]: significant decrease in tumor volume | microvessel density in tumors (CD31 staining) [5]: less microvessel density | apoptosis in tumors (cleaved caspase 3 IHC) [5]: increase in the number of cells undergoing apoptosis | IC50 [1]: ~6 nM

COc1ccc2c(c1)C(O)CCN2c1nc(Cl)nc2ncccc12 (stereo not drawn) [compound 17, 1-(2-Chloropyrido[2,3-d]pyrimidin-4-yl)-6-methoxy-1,2,3,4-tetrahydroquinolin-4-ol]
IC50 [1]: ~30 nM

COc1cc2c(c(OC)c1OC)-c1ccc(OC)c(=O)cc1[C@@H](NC(C)=O)CC2 [colchicine]
wound closure, RPMI7951, 5 nM [7]: a significant decrease in migration was not observed
